# Experimental data taken from patent US20230085945A1, “ORTHOGONAL SAFETY SWITCHES TO ELIMINATE GENETICALLY ENGINEERED CELLS” (The Board of Trustees of the Leland Stanford Junior …, priority 2020, published 2023).
# Columns and labels:
# [1] = tested on: NANOG-YFP^+ hPSCs mixed with hPSC-derived sclerotome cells; assay: Ablation of undifferentiated hPSCs in a heterogeneous cell population (hPSCs spiked into day-5 sclerotome cells); assay type: cell-based, human
# Method: FIG. 3: Implementation of the NANOG^iCasp9-YFP safety switch. A) Schema depicting how drug AP20187 induces dimerization of Caspase9 in undifferentiated NANOG^iCasp9-YFP hESCs, subsequently triggering cell death (top left). NANOG^iCasp9-YFP hESCs were treated for 24 hours with increasing concentrations of AP20187. AP20187 was withdrawn, and cultures were further grown in mTeSR1 to allow any surviving hESCs to grow; any surviving colonies were counted 1 week later (top right). Alkaline phosphatase staining of whole wells of a 12-well plate after 24-hour treatment with AP20187 (bottom). […] Bioluminescent imaging of mice occurred weekly for 5 weeks with no transplant control (NTC) animals included for relative luminescence normalization. Total flux (photons/sec) was measured for each animal and averaged. […] The percentage of surviving cells was calculated relative to untreated controls. […]
# Flow cytometric quantification of viable cells—NANOG^iCasp9-YFP hESCs were dissociated into single cells with Accutase and 1×10^6 cells were plated per well in a 6-well plate pre-coated with Matrigel. […] Subsequently, to quantify the percentage of surviving cells, the cultures were dissociated with TrypLE Express. […] YFP^+ (i.e., NANOG^+) cells were analyzed (Beckman Coulter CytoFlex Analyzer) to count live cells for both untreated and AP20187-treated groups. […]
# [2] = tested on: NANOG^iCasp9-YFP;ACTB^HSV-TK-mPlum hPSCs transplanted subcutaneously; assay: Teratoma formation after AP20 pre-treatment of dual-safeguard hPSCs; assay type: in vivo, NOD-SCID Il2rg^−/− mice; settings: pre-treatment with 1 nM AP20 before transplantation
# Method: FIG. 5: Implementation of the ACTB^TK-mPlum safety switch. A) NANOG^iCasp9-YFP;ACTB^TK-mPlum hESCs were treated with ganciclovir (or left untreated) for 24 hours, and subsequently ganciclovir was withdrawn and hESCs were cultured for 1 week in mTeSR1 to detect any surviving cells and to allow them to regrow. […] N.D.=not detected. B) NANOG^iCasp9-YFP;ACTB^TK-mPlum hESCs were differentiated into day 6 liver, sclerotome and neural progenitors and treated with ganciclovir at the indicated doses for the last 24 hours of differentiation. Cell survival was analyzed by counting at day 6 of differentiation. C) 10^6 NANOG^iCasp9-YFP; ACTB^TK-mPlum hESCs engineered to express CAG-AkaLuciferase were treated with control media or 1 nM AP20187 for 24 hours, and then subcutaneously transplanted into the right and left dorsal flanks of NOD-SCID Il2rg^−/− mice (10^6 cells per flank). […] Total flux (photons/sec) was measured for each animal and were averaged.
# In vivo teratoma formation. […] Teratoma growth was monitored throughout the duration of the experiment via visual inspection and bioluminescent imaging.
# Bioluminescent imaging. […] Subsequent image analysis was done in Aura with regions of interest (ROIs) drawn for each mouse to calculate Total Flux (photons/sec) in order to quantify teratoma growth over time.
structure (smiles),measurement,setting,value
CC[C@H](C(=O)N1CCCC[C@H]1C(=O)O[C@H](CCc1ccc(OC)c(OC)c1)c1cccc(OCC(=O)NCC(CNC(=O)COc2cccc([C@@H](CCc3ccc(OC)c(OC)c3)OC(=O)[C@@H]3CCCCN3C(=O)[C@@H](CC)c3cc(OC)c(OC)c(OC)c3)c2)CN(C)C)c1)c1cc(OC)c(OC)c(OC)c1 [AP20],decrease in NANOG-YFP^+ cells,"[1]; 10% undifferentiated hPSCs in day-5 sclerotome progenitors, AP20 for last 24 hours",> 10 fold
same,colony formation of surviving FACS-purified NANOG-YFP^+ cells,[1]; continued culture in hPSC media after AP20,did not form colonies
same,teratoma formation in vivo,[2],prevented them from forming teratomas in vivo
